Blank lines part the entries; values can stand above or below the molecule they belong to.
Assay: solvent given as SMILES

emission maximum (in ClC(Cl)Cl): 487 nm
Structure (SMILES): FC(F)(F)c1ccc2oc3nc4oc5ccc(N(c6ccccc6)c6ccccc6)cc5c4cc3c2c1

emission maximum (in CC#N): 466 nm
Structure (SMILES): Oc1ccc2ccccc2c1/C=N/CC/N=C/c1c(O)ccc2ccccc12

Structure (SMILES): c1ccc2c(c1)[nH]c1c3[nH]c4ccccc4c3c3nsnc3c21
emission maximum (in CN(C)C=O): 493 nm
emission maximum (in Cc1ccccc1): 456 nm
emission maximum (in ClCCl): 489 nm

emission maximum (in CCO): 603 nm
Structure (SMILES): CN(C)c1ccc2c(C(=O)NCc3ccccc3)cc(C(=O)[O-])nc2c1

emission maximum (in CC#N): 480 nm
Structure (SMILES): N#C/C(=C\c1ccc(Cl)cc1)c1nc(-c2ccccc2)cs1

Structure (SMILES): CCCCN1C(=O)c2cccc3c(OC)ccc(c23)C1=O
emission maximum (in Cc1ccccc1): 422 nm

Structure (SMILES): CCc1ccc(/C=C/c2ccc(-c3nnc(-c4ccc(-c5cc6ccccc6s5)cc4)o3)cc2)cc1
emission maximum (in CC#N): 421 nm
emission maximum (in CC(C)=O): 420 nm
emission maximum (in CCCCCCCC): 389 nm
emission maximum (in CCCCCCCCCCO): 420 nm
emission maximum (in CCCCCCCCO): 421 nm
emission maximum (in CCCCCO): 421 nm
emission maximum (in CCCO): 422 nm
emission maximum (in CN(C)C=O): 429 nm
emission maximum (in CO): 426 nm
emission maximum (in CS(C)=O): 433 nm

emission maximum (in ClC(Cl)Cl): 469 nm
Structure (SMILES): COc1ccc(-c2ncc3ccccn23)cc1

emission maximum (in ClCCl): 506 nm
Structure (SMILES): CCCCc1ccc2c(c1)c1ccc3cccc4c3c1c1c2c2cccc3ccc5c6cc(CCCC)ccc6c4c1c5c32

emission maximum (in CC#N): 606 nm
Structure (SMILES): CCN(CC)c1ccc(/C=N/C(C#N)=C(C#N)\N=C\c2ccc(N(CC)CC)cc2O)c(O)c1

emission maximum (in C1CCCCC1): 475 nm
emission maximum (in CC#N): 467 nm
emission maximum (in CO): 473 nm
emission maximum (in ClCCl): 485 nm
emission maximum (in O): 470 nm
Structure (SMILES): Cc1nc(-c2ccccc2)c2ccccn12

emission maximum (in ClC(Cl)Cl): 430 nm
Structure (SMILES): Cc1ccc2nc3c4c(c5ccccc5c3nc2c1)OC(=O)CC4c1ccc(C(F)(F)F)cc1 (configuration not stated)

emission maximum (in ClC(Cl)Cl): 665 nm
Structure (SMILES): CN1C(=CC2=C([O-])C(=CC3=[N+](C)c4ccccc4C3(C)C)C2=NC#N)C(C)(C)c2ccccc21

Structure (SMILES): CC1(C)c2ccccc2-c2cc3c(cc21)N(c1ccc(-c2nc(-c4ccc(N5c6ccccc6C(c6ccccc6)(c6ccccc6)c6cc7c(cc65)C(C)(C)c5ccccc5-7)cc4)nc(-c4ccc(N5c6ccccc6C(c6ccccc6)(c6ccccc6)c6cc7c(cc65)C(C)(C)c5ccccc5-7)cc4)n2)cc1)c1ccccc1C3(c1ccccc1)c1ccccc1
emission maximum (in Cc1ccccc1): 515 nm

Structure (SMILES): COc1ccc(/C=C/C2=[O+][B-](F)(F)OC(/C=C/c3ccc(OC)cc3)=C2c2ccccc2)cc1
emission maximum (in CC#N): 564 nm
emission maximum (in CC(C)=O): 549 nm
emission maximum (in CCOC(C)=O): 534 nm
emission maximum (in CCOCC): 520 nm
emission maximum (in ClC(Cl)(Cl)Cl): 515 nm
emission maximum (in ClCCl): 554 nm

emission maximum (in C1CCOC1): 502 nm
emission maximum (in C1COCCO1): 466 nm
emission maximum (in CC#N): 560 nm
emission maximum (in CCO): 556 nm
emission maximum (in ClCCl): 519 nm
Structure (SMILES): C(=C\c1ccc(N(c2ccccc2)c2ccccc2)cc1)/c1ccc(-c2cc(-c3ccccn3)nc(-c3ccccn3)c2)cc1

Structure (SMILES): COc1ccc(C#Cc2nc3ccccc3nc2-c2cn(C)c3ccccc23)cc1
emission maximum (in C1CCOC1): 490 nm
emission maximum (in CC#N): 518 nm
emission maximum (in CC(C)=O): 513 nm
emission maximum (in CC(C)O): 519 nm
emission maximum (in CCO): 522 nm
emission maximum (in CCOC(C)=O): 491 nm
emission maximum (in CO): 525 nm
emission maximum (in Cc1ccccc1): 468 nm
emission maximum (in ClCCl): 506 nm

emission maximum (in C1CCOC1): 443 nm
Structure (SMILES): CC(C)(C)c1ccc(-c2c(-c3ccc(N(c4ccccc4)c4ccccc4)cc3)c(C#N)c(-c3ccc(N(c4ccccc4)c4ccccc4)cc3)c(-c3ccc(C(C)(C)C)cc3)c2-c2ccc(C(C)(C)C)cc2)cc1

emission maximum (in ClC(Cl)Cl): 697 nm
Structure (SMILES): Cc1ccc(C2=CC(c3ccc(C)cc3)=[N+]3C2=Nc2c(-c4ccc(C)cc4)cc(-c4ccc(C)cc4)n2[B-]3(F)F)cc1

emission maximum (in CN(C)C=O): 410 nm
Structure (SMILES): Cc1ccc2nc(-c3cccc4nc(C)[nH]c(=O)c34)oc2c1

Structure (SMILES): c1ccc2c(c1)CCc1ccccc1N2c1c2ccccc2c(N2c3ccccc3CCc3ccccc32)c2ccccc12
emission maximum (in Cc1ccccc1): 525 nm

Structure (SMILES): CCN(CC)c1ccc2cc(/C=C/C(=C(C#N)C#N)c3ccc4c(c3)c3ccccc3n4CC)c(=O)oc2c1
emission maximum (in CC(C)=O): 614 nm
emission maximum (in CCOC(C)=O): 590 nm
emission maximum (in CN(C)C=O): 629 nm
emission maximum (in CS(C)=O): 638 nm
emission maximum (in Cc1ccccc1): 571 nm
emission maximum (in ClCCl): 604 nm

Structure (SMILES): Cc1ccc2c(c1)C(c1ccccc1)(c1ccccc1)c1cc(C)ccc1N2c1ccc2c(c1)Sc1ccccc1B2c1c(C(C)C)cc(C(C)C)cc1C(C)C
emission maximum (in Cc1ccccc1): 493 nm
emission maximum (in O=P(c1ccccc1)(c1ccccc1)c1ccc2oc3ccc(P(=O)(c4ccccc4)c4ccccc4)cc3c2c1): 497 nm

emission maximum (in ClCCl): 491 nm
Structure (SMILES): CC(C)(C)c1ccc(N(c2ccc(C(C)(C)C)cc2)c2cc(N(c3ccc(C(C)(C)C)cc3)c3ccc(C(C)(C)C)cc3)c3ccc4cc(C(C)(C)C)cc5ccc2c3c54)cc1

emission maximum (in C1CCOC1): 754 nm
emission maximum (in ClC(Cl)Cl): 754 nm
Structure (SMILES): COc1ccc(-c2cc3c(s2)=CC2=C(C(F)(F)F)c4cc5sc(-c6ccc(OC)cc6)cc5n4[B-](F)(F)[N+]=32)cc1

Structure (SMILES): CCCCN1C(=O)C(=C/C=C/C=C/C=C2N(CCCC)c3ccccc3N2CCCC)C(=O)N(CCCC)C1=S
emission maximum (in CC#N): 688 nm
emission maximum (in CCCCCC): 707 nm
emission maximum (in CCO): 685 nm
emission maximum (in CN(C)C=O): 690 nm
emission maximum (in CO): 682 nm
emission maximum (in Cc1ccccc1): 715 nm
emission maximum (in ClC(Cl)Cl): 702 nm
emission maximum (in ClCCl): 697 nm
emission maximum (in OCC(F)(F)F): 663 nm

Structure (SMILES): CCCCCCc1ccc(-n2c3[n+](c4c5ccccc5c5ccccc5c42)[B-](C)(C)c2cc(N(c4ccccc4)c4ccccc4)ccc2-3)cc1
emission maximum (in C1CCOC1): 435 nm
emission maximum (in CC#N): 446 nm
emission maximum (in Cc1ccccc1): 428 nm
emission maximum (in ClCCl): 437 nm

emission maximum (in ClCCl): 419 nm
Structure (SMILES): c1cc(-c2c3ccccc3c(-c3ccc4ccccc4c3)c3ccccc23)cc(-n2c3ccccc3c3ccccc32)c1

emission maximum (in ClCCl): 360 nm
Structure (SMILES): c1ccc(-c2ccc(-c3cc(-c4ccccn4)nc(-c4ccccn4)c3)cc2)cc1

emission maximum (in ClCCl): 575 nm
Structure (SMILES): Cc1cc(-c2ccc(N(c3ccccc3)c3ccccc3)cc2)c2nsnc2c1-c1ccc(C(C)(C)C)cc1

emission maximum (in O): 603 nm
Structure (SMILES): CC[n+]1c(-c2ccccc2)c2cc(-n3cccc3)ccc2c2ccc(N)cc21

emission maximum (in CS(C)=O): 639 nm
Structure (SMILES): COc1ccc(-c2c3nc(cc4ccc([nH]4)c(-c4ccc(OC)c(OCCCC(=O)O)c4)c4nc(cc5ccc2[nH]5)C=C4)C=C3)cc1OCCCC(=O)O

emission maximum (in ClC(Cl)Cl): 403 nm
Structure (SMILES): CSc1ccc2cc(C#N)c3ccc4ccccc4c3c2c1

Structure (SMILES): CC(C)(C)c1ccc2c(c1)c1cc(C(C)(C)C)ccc1n2-c1ccccc1-c1nc(-c2ccccc2-n2c3ccc(C(C)(C)C)cc3c3cc(C(C)(C)C)ccc32)nc(-c2ccccc2P(=O)(c2ccccc2)c2ccccc2)n1
emission maximum (in C1CCOC1): 512.54 nm
emission maximum (in CC#N): 546.04 nm
emission maximum (in CC(C)=O): 533.4 nm
emission maximum (in CN(C)C=O): 546.04 nm
emission maximum (in Cc1ccccc1): 493.22 nm
emission maximum (in ClC(Cl)Cl): 516.24 nm
emission maximum (in ClCCl): 529.29 nm
emission maximum (in O=P(c1ccccc1)(c1ccccc1)c1ccccc1Oc1ccccc1P(=O)(c1ccccc1)c1ccccc1): 500 nm

Structure (SMILES): CCCCCCCCCC1(CCCCCCCCC)c2cc(C#Cc3ccc(/C=C/c4ccc(N(CCCCCCCC)CCCCCCCC)cc4)cc3)ccc2-c2ccc(C#Cc3ccc(/C=C/c4ccc(N(CCCCCCCC)CCCCCCCC)cc4)cc3)cc21
emission maximum (in Cc1ccccc1): 464 nm

Structure (SMILES): CC(C)c1cc(C(C)C)c(-c2nnc(-c3ccc(-n4c5ccccc5c5ccccc54)cc3)o2)c(C(C)C)c1
emission maximum (in CCO): 435 nm
emission maximum (in Cc1ccccc1): 377 nm

emission maximum (in ClCCl): 434 nm
Structure (SMILES): c1cncc(-c2ccc(-c3c4ccccc4c(-c4ccc(-c5cccnc5)cc4)c4cc(-c5cccnc5)ccc34)cc2)c1

emission maximum (in CCO): 380 nm
Structure (SMILES): Cc1cc(=O)oc2cc(O)ccc12

emission maximum (in CC1CCCO1): 490 nm
emission maximum (in CC#N): 529 nm
Structure (SMILES): Cn1c(=O)nc2n(C)c3ccccc3nc-2c1=O

Structure (SMILES): Oc1ccccc1C1=NC2c3cccc4cccc(c34)C2N1c1ccccc1 (configuration not stated)
emission maximum (in Cc1ccccc1): 575 nm

Structure (SMILES): COc1cc2c(cc1/C=C(\C#N)c1nc3ccccc3s1)c1ccccc1n2C
emission maximum (in C1CCOC1): 499 nm
emission maximum (in CC#N): 509 nm
emission maximum (in CCOC(C)=O): 493 nm
emission maximum (in CN(C)C=O): 508 nm
emission maximum (in CO): 510 nm
emission maximum (in CS(C)=O): 518 nm
emission maximum (in Cc1ccccc1): 494 nm
emission maximum (in ClC(Cl)Cl): 504 nm
emission maximum (in ClCCl): 501 nm

emission maximum (in CC#N): 612 nm
Structure (SMILES): CC1=[N+]2C(=C(c3ccccc3)c3c4c(c(C)n3[B-]2(F)F)CCc2ccccc2-4)C2=C1CCc1ccccc12

emission maximum (in C1CCCCC1): 380 nm
emission maximum (in C1CCOC1): 428 nm
emission maximum (in CC#N): 480 nm
emission maximum (in CCOC(C)=O): 428 nm
emission maximum (in ClCCCl): 450 nm
emission maximum (in c1ccccc1): 412 nm
Structure (SMILES): CCCCCCCCCCCCCCCCOC(=O)c1ccc(N(c2ccccc2)c2ccccc2)cc1

Structure (SMILES): N#Cc1cc2ccc([O-])cc2oc1=O
emission maximum (in O): 450 nm

emission maximum (in C1CCOC1): 460 nm
Structure (SMILES): N#Cc1c(N2CCCCC2)cc(-c2cccc3ccccc23)c2c1C(=O)c1ccccc1-2

emission maximum (in ClCCl): 483 nm
Structure (SMILES): CCOc1cccc2c1O[B-](F)(F)[n+]1c3c(c4c(c1-2)-c1ccccc1CC4)-c1ccccc1CC3

Structure (SMILES): CC(C)(C)c1ccc(C2=CC3=C(c4ccccc4)c4cc(-c5ccc(C(C)(C)C)cc5)c(-c5ccc(C(C)(C)C)cc5)n4[B-](F)(F)[N+]3=C2c2ccc(C(C)(C)C)cc2)cc1
emission maximum (in C1CCCCC1): 643 nm
emission maximum (in C1CCOC1): 649 nm
emission maximum (in CC#N): 647 nm
emission maximum (in Cc1ccccc1): 649 nm
emission maximum (in ClCCl): 649 nm

Structure (SMILES): N#Cc1cc(-n2c3ccccc3c3ccccc32)c(-n2c3ccccc3c3ccccc32)cc1-c1cc(-n2c3ccccc3c3ccccc32)c(-n2c3ccccc3c3ccccc32)cc1C#N
emission maximum (in Cc1ccccc1): 458 nm

emission maximum (in C1COCCO1): 447 nm
Structure (SMILES): COc1ccc(C2=N/C(=C\c3ccccc3)C(=O)O2)cc1OC

emission maximum (in ClC(Cl)Cl): 427.35 nm
Structure (SMILES): CCCCCCn1c2cc(/C=C/c3cccs3)ccc2c2ccc(/C=C/c3cccs3)cc21

emission maximum (in CCCCCC): 661 nm
Structure (SMILES): CC(C)[Si](C#Cc1c2cc3ccccc3cc2c(C#C[Si](C(C)C)(C(C)C)C(C)C)c2nc3c(ccc4ccccc43)nc12)(C(C)C)C(C)C

From the Deep4Chem optical property database
